The record followed here is PMC3804601, “Single Nucleotide Polymorphisms of Human STING Can Affect Innate Immune Response to Cyclic Dinucleotides” (PLoS ONE, 2013).

Series [1] addresses T1, hSTING (stimulator of interferon genes) (Homo sapiens, UniProt Q86WV6).
T1 construct: gene STING1; hSTING cDNA with C-terminal Flag tag expressed in HEK293T cells
In words: IFN-β luciferase reporter in STING-transfected, digitonin-permeabilized HEK293T cells (vector control inactive). In kind it is cell-based. In general terms: Reporter assays use an easily measured gene product as a stand-in for the process of interest.

The target of series [2] is T2, hSTING (stimulator of interferon genes) (Homo sapiens, UniProt Q86WV6, G230A/H232R).
T2 construct: gene STING1; C-terminal domain, residues 149-341, C-terminal 6×His tag (WT = R232)
T2 sequence (Q86WV6 149-341 G230A/H232R): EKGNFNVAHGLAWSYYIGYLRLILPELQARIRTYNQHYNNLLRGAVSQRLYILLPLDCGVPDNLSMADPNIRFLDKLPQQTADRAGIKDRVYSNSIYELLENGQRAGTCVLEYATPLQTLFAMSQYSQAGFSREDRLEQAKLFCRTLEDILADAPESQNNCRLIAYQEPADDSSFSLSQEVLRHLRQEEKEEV
In words: isothermal titration calorimetry; DSF shift (+[…]°C). In kind it is binding. On the technique in general: Isothermal titration calorimetry measures the heat released or taken up as one component is titrated into another.

In series [3] the target is T3, hSTING (stimulator of interferon genes) (Homo sapiens, UniProt Q86WV6, H232R).
T3 construct: gene STING1; C-terminal domain, residues 149-341, C-terminal 6×His tag (WT = R232)
T3 sequence (Q86WV6 149-341 H232R): as the sequence (Q86WV6 149-341 G230A/H232R) above, with A82G counted along it
The experiment in a line: isothermal titration calorimetry; DSF shift (+[…]°C). In kind it is binding.

The Kd is the free concentration of one partner at which half of the binding sites on the other are occupied at equilibrium, for simple one-to-one binding.

T1 sequence (Q86WV6 whole entry): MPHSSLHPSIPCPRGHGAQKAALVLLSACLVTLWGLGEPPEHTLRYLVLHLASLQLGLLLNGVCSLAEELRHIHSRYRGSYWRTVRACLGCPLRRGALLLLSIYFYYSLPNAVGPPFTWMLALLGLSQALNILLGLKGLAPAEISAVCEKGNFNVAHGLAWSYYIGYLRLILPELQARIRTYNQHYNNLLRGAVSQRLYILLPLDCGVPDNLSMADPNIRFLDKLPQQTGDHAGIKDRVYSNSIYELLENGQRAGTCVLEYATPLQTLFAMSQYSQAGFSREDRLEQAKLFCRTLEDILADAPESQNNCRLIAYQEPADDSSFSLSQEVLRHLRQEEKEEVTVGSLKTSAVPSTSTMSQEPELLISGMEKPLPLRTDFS

Turning to `Nc1ncnc2c1ncn2[C@@H]1O[C@@H]2COP(=O)(O)O[C@H]3[C@@H](O)[C@H](n4cnc5c(N)ncnc54)O[C@@H]3COP(=O)(O)O[C@H]2[C@H]1O` [c-di-AMP], in series [1], the “IFN-β luciferase reporter in STING-transfected, digitonin-permeabilized HEK293T” value was 16.1 fold (ratio to unstimulated). `Nc1nc2c(ncn2[C@@H]2O[C@@H]3CO[P@](=O)(O)O[C@H]4[C@@H](O)[C@H](n5cnc6c(=O)[nH]c(N)nc65)O[C@@H]4CO[P@](=O)(O)O[C@H]3[C@H]2O)c(=O)[nH]1` [c-di-GMP]: the equilibrium dissociation constant (Kd) in series [2] amounted to 1900 nM; in series [3], 3300 nM.
